From US20200038413A1, “METHODS OF TREATING PARKINSON'S DISEASE USING AMINOSTEROL COMPOSITIONS” (Enterin, Inc., priority 2018, published 2020)
Where “and” joins values, the source holds several entries; their conditions need not be identical. Identical values can stand only once.

Tests used:
[1] = test system: patients with PD and constipation; assay: Phase 2 trial: safety and adverse event profile; assay type: in vivo, human
Method: Each dose period was staggered, so that subjects 1-2 were administered a single dose of the drug at the lowest dose of 25 mg. Once 24 hours have elapsed, and provided there are no safety concerns, the patient was sent home and brought back on day 4-8 for the next dose. During the days the subjects are home, they completed the daily diaries and e-mailed them to the study coordinators. Subjects 3-10 were dosed after the first 2 subjects have been observed for 72 hours, i.e. on Day 4. Subjects 1-2 were also brought back on Day 4-8 and administered a single dose of 50 mg. Once another 24 hours have elapsed and provided there are no safety concerns, the patients were all sent home and instructed to return on Day 7 for the next dosing level. This single dosing regimen was continued until each subject was administered a single dose of 200 mg or has reached a dose limiting toxicity (DLT). DLT was the dose which induces repeated vomiting, diarrhea, abdominal pain or symptomatic postural hypotension within 24 hours of dosing.
Adverse events were coded using the current version of MedDRA. Severity of AEs were assessed by investigators according to CTCAE (v4.03): Grade 1 is labeled as Mild, Grade 2 as Moderate, and Grade 3 and above as Severe. […] The number (percentage) of subjects who experienced an AE during escalation and fixed dosing periods were summarized by dose level and overall for each stage. The denominator for calculating the percentages were based on the number of subjects ever exposed to each dose and overall.

[2] = Phase 2 trial: pharmacokinetics of orally administered squalamine (ENT-01); assay type: in vivo; conditions: human, based on PK of intravenously administered squalamine in prior clinical studies
Method: Pharmakokinetics: PK data were collected on the 10 patients enrolled in Stage 1 and 10 patients enrolled in Stage 2 to determine the extent of systemic absorption. In Stage 1, PK data were obtained at each visit, pre-medication, at 1, 2, 4, 8 and 24 hours (Table 10). In Stage 2, PK was measured on days 1 and 6 of the randomization period pre-medication, at 1, 2, 4 and 8 hours (Table 11).
The mean Cmax, Tmax and T1/2 and AUC of the squalamine ion following squalamine (ENT-01) oral dosing for Stage 1 patients. The PK analyses are only approximate, as the lower limit of the validated concentration range was 10 ng/ml; most of the measured concentrations fell below that value. The mean Cmax, Tmax and T1/2 and AUC of the squalamine ion following squalamine (ENT-01) oral dosing for Stage 2 patients. The PK analyses are only approximate, as the lower limit of the validated concentration range was 0.5 ng/ml.

[3] = test system: patients with PD and constipation; assay: Phase 2 trial Stage 2: CNS symptoms (UPDRS, MMSE, PDHQ, BDI-II, sleep diary); assay type: in vivo, human
Description: Exploratory end-points, in addition to constipation, included for example, (i) depression assessed using the Beck Depression Inventory (BDI-II) (Steer et al. 2000) and Unified Parkinson's Disease Rating Scale (UPDRS); (ii) cognition assessed using the Mini Mental State Examination (MMSE) (Palsteia et al. 2018), Unified Parkinson's Disease Rating Scale (UPDRS), and Trail Making Test (TMT); (iii) sleep and REM-behavior disorder (RBD) using a daily sleep diary, I-Button Temperature Assessment, a REM sleep behavior disorder (RBD) questionnaire (RBDQ) (Stiasny-Kolster et al. 2007), and the UPDRS; (iv) hallucinations assessed using the PD hallucinations questionnaire (PDHQ) (Papapetropoulos et al. 2008), the UPDRS, and direct questioning; (v) fatigue using the Parkinson's Disease Fatigue Scale (PFS-16) and the UPDRS; (vi) motor functions using the UPDRS; and (vii) non-motor functions using the UPDRS.
Assessments were made at baseline and at the end of the fixed dose and washout periods. Circadian system status was evaluated by continuously monitoring wrist skin temperature (Thermochron iButton DS1921H; Maxim, Dallas) following published procedures (Sarabia et al. 2008).
CNS Symptoms in Stage 2: An exploratory analysis was done with respect to the sleep data, the body temperature data, mood, fatigue, hallucinations, cognition and other motor and non-motor symptoms of PD. Continuous measurements within a subject were compared with a paired t-test and continuous measurements between subject groups were compared with a two-group t-test. Categorical data were compared with a chi-squared test or a Fisher's exact test if the expected cell counts are too small for a chi-squared test.

[4] = test system: colon segments (propagating contractile clusters); assay: Ex vivo colon motility (PCCs), Swiss Webster, C57BL/6 and CD-1 mice; design: species or system mouse; conditions: for increase in colonic PCC velocity / colonic PCC velocity: intraluminal 10-30 μM; for colonic PCC velocity: mean±SEM
Method: Ex vivo colon motility: For the ex vivo colonic motility experiments, the colon was excised and placed within an organ-bath perfusion chamber filled with warmed, oxygenated Krebs buffer or physiological saline (35° C., 95% O2, 5% CO2). The colon was flushed and cannulated at the oral and anal ends to a manifold and syringe to allow inflow of oxygenated Krebs buffer (or physiological saline) or Krebs and squalamine and to maintain intraluminal pressure. The height of the inflow tube at baseline measurements was parallel to the height of the colon in the organ bath (1.1 cm). Mechanical threshold defined an inflow pressure great enough to generate a contraction in under 30 sec (1.8 cm). Recordings in the first portion of the study were measured at a mechanical threshold causing a pressure differential of 2 hPa (cm H2O). Inflow was raised 2-3 hPa above baseline and outflow was raised a minimum of 0.2 hPa above inflow. Motor patterns were recorded using a Microsoft LifeCam 3000 web camera or a Logitech Quickcam Pro camera positioned 7-8 cm above the tissue. Videos were recorded during a 20-minute Krebs control and a 20-minute Krebs +squalamine period in which solutions were added to the inflow syringe.
Spatiotemporal Maps: Video recordings were used to construct spatiotemporal maps (STmaps) using edge detection software. STmaps are presented as heat maps showing the oral to anal direction across the y-axis and time across the x-axis (FIGS. 9A-C). Color corresponds to the changing diameter of the colon during periods of relaxation (green-yellow) and contraction (red) as contractile motor patterns occurred. ENS-dependent PCCs were defined as broad bands directed from the oral to anal ends that spanned more than 50% of the colon length. Parameters of motor patterns including, velocity, amplitude, and frequency were measured using ImageJ and Matlab (Version 12) software.
Statistical Analysis: Effects of squalamine on motility and IPAN excitability in WT and PD model mice were assessed in paired experiments following Krebs control and subsequent squalamine exposure. Unpaired comparisons were performed for experiments comparing PD control and PD model strains. Percent difference was calculated by (treatment-control)/control. Data are presented as mean±SEM. Ex vivo statistical comparisons were performed using paired or unpaired, two-tailed t-tests or 1-way ANOVA using Graphpad Prism software (Version 7.0). In vivo studies were analysed using 1-way and 2-way ANOVA. Statistical significance was determined when p <0.05.

[5] = test system: colon segments (propagating contractile clusters); assay: Ex vivo colon motility, A53T human α-synuclein overexpressing mice and WT littermates; design: species or system mouse
[6] = Preclinical oral studies in rats; assay type: in vivo
C. elegans model of PD = conditions: cited from earlier work
[7] = C57BL/6 mice, vs Krebs control (P=0.27)

CC(C)[C@@H](CC[C@@H](C)[C@H]1CC[C@H]2[C@@H]3[C@H](O)C[C@H]4C[C@@H](NCCCNCCCCN)CC[C@]4(C)[C@H]3CC[C@]12C)OS(=O)(=O)O (single isomer, unassigned) [squalamine (ENT-01), squalamine]
Diarrhea, patients ([1]; Stage 1, 4/10): 40%
nausea, patients ([1]; Stage 1, 4/10): 40%
Diarrhea, patients ([1]; Stage 2, 15/34): 44%
nausea, patients ([1]; Stage 2, 18/34): 52.9%
worsening of hemorrhoids, patients ([1]; both stages, 1/44): 2.2%
worsening of acid reflux, patients ([1]; both stages, 2/44): 4.5%
flatulence, patients ([1]; both stages, 3/44): 6.8%
vomiting, patients ([1]; both stages, 3/44): 6.8%
dizziness, patients ([1]; both stages, 8/44): 18%
abdominal pain, patients ([1]; both stages, 11/44): 32%
oral bio-availability (estimated) [2]: less than 0.3%
increase in total sleep time ([3]; 250 mg vs baseline): 18%
hallucinations and delusions improved or disappeared ([3]; during treatment, patients with hallucinations (5) or delusions (1) at baseline): 5 of 6
improvement in frequency of arm or leg thrashing ([3]; maximal dose vs baseline): 100%
improvement in UPDRS Part 1 ([3]; wash-out vs baseline): ~20% and 18%
increase in colonic PCC velocity ([4]; C57BL/6 mice, vs Krebs control): 38%
colonic PCC velocity ([4]; C57BL/6 mice, Krebs control 1.31±0.10): 1.80±0.20 mm/s
increase in PCC amplitude [4, 7]: 1%
increase in PCC frequency [4, 7]: 51%
PCC frequency ([4]; C57BL/6 mice, Krebs control 0.007±0.001): 0.010 ±0.003 Hz
PCC amplitude ([4]; C57BL/6 mice, Krebs control 0.66±0.06): 0.70±0.07 cm
increase in colonic PCC velocity ([4]; CD-1 mice, vs Krebs control): 81%
colonic PCC velocity ([4]; CD-1 mice, Krebs control 0.96±0.1): 1.74±0.1 mm/s
increase in PCC frequency ([4]; CD-1 mice, vs Krebs control (P=0.06)): 63%
increase in PCC amplitude ([4]; CD-1 mice, vs Krebs control (P=0.56)): 12%
PCC frequency ([4]; CD-1 mice, Krebs control 0.0099±0.0014): 0.0162±0.0026 Hz
PCC amplitude ([4]; CD-1 mice, Krebs control 0.64±0.19): 0.71±0.19 cm
increase in colonic PCC velocity ([4]; Swiss Webster mice, 20 min, vs Krebs control): 45%
colonic PCC velocity ([4]; Swiss Webster mice, Krebs control 1.14±0.10): 1.66±0.10 mm/s
increase in PCC frequency ([4]; Swiss Webster mice, vs Krebs control): 35%
decrease in PCC amplitude ([4]; Swiss Webster mice, vs Krebs control (P=0.65)): 3%
PCC frequency ([4]; Swiss Webster mice, Krebs control 0.009±0.001): 0.012±0.001 Hz
PCC amplitude ([4]; Swiss Webster mice, Krebs control 0.62±0.05): 0.61±0.05 cm
PCC velocity ([5]; A53T mice, baseline state, intraluminal 30 μM, without drug 1.2±0.2): 2.3±0.4 mm/s
PCC velocity ([5]; A53T mice, colonic expansion (mechanical threshold), 30 μM, without drug 1.6±0.3): 2.1±0.3 mm/s
PCC velocity ([5]; WT mice, baseline state, intraluminal 30 μM, without drug 1.7±0.3): 2.8±0.4 mm/s
PCC velocity ([5]; WT mice, colonic expansion (mechanical threshold), 30 μM, without drug 3.0±0.7): 2.4±0.3 mm/s
tolerability ([6]; oral): well tolerated
oral bioavailability ([6]; preclinical studies): about 0.1%
muscle paralysis (C. elegans model of PD; C. elegans model of PD (Perni et al. 2017)): complete reversal of muscle paralysis
formation of aggregates of αS (C. elegans model of PD; C. elegans model of PD in vivo (Perni et al. 2017)): inhibit the formation of aggregates of αS
